Test results: patent publication US4503256A, “Phlorophenone derivatives, processes for preparing such compounds, uses and pharmaceutical compositions of phlorophenone compounds” (Noristan Limited, priority 1981, dated 1985)
≈ marks a conversion by molar mass, not a printed value.

How the values were obtained:
[1] = test system: S. AUREUS; assay: Minimum Inhibitory Concentration (MIC), broth dilution in Brain Heart Infusion broth; assay type: cell-based, Staphylococcus aureus; conditions: 37° C., 48 hours, Brain Heart Infusion broth; for MIC: Staphylococcus aureus, read-out: MIC S. AUREUS
Description: (§1) For testing against the bacteria, concentrations of each of the compounds were prepared in Brain Heart Infusion broth (Oxoid CM225) in two-fold steps from 1000 μg/ml to 1 μg/ml. Solutions containing 1000 μg/ml were prepared by dissolving 20 mg of each compound in 5 ml of acetone and this was then made up to 20 ml with Brain Heart Infusion Broth. Serial two-fold dilutions were then prepared in the broth down to 1 μg/ml.
(§2) For testing against the bacteria each of the prepared test concentrations and acetone controls prepared in Brain Heart Infusion were dispensed in 2 ml amounts for each organism. A growth control of 2 ml of Brain Heart Infusion was included in each series.
(§3) To each of the prepared sets of concentrations of each compound were added 0.1 ml aliquots of the organism suspensions prepared as described previously. All the bottles were incubated at 37° C. for 48 hours in the case of the bacteria and from 5 to 15 days for the fungi (until growth controls had grown in each case).
(§4) After incubation the broths were examined for evidence of growth. The lowest concentration of the test compound which prevented growth was recorded as the Minimum Inhibitory Concentration (MIC).

[2] = Acute oral toxicity in CD-1 mice; assay type: in vivo; conditions: mouse, in vivo, male and female CD-1 mice, dose levels 1000, 464, 215 and 100 mg/kg, 7 days observation
Description: (§5) Male and female CD-1 mice were fasted for 18 hours prior to the experiment, but water was available ad libitum except during the observation period. The test compounds were prepared in 1% tragacanth and were administered orally to groups of two male and two female mice.
(§6) All compounds were tested at dose levels of 1000, 464, 215 and 100 mg/kg. Immediately after dosing, the mice were replaced in their "home" cage and were observed daily for 7 days post dose and any mortalities recorded.
(§7) The acute toxicities, as determined by the above procedure, of a number of representative compounds are given in the accompanying table.

[3] = test system: Mic. CANIS; assay: Minimum Inhibitory Concentration (MIC), dilution in Sabouraud liquid medium; assay type: cell-based; conditions: 37° C., 5 to 15 days; for MIC: Microsporum canis
Description: (§8) For testing against the fungi, concentrations of each of the compounds were prepared in Sabouraud liquid medium in two-fold steps from 100 μg/ml to 0.1 μg/ml. 500 μg/ml solutions were prepared by dissolving 10 mg in 5 ml of acetone, made up to 20 ml with Sabouraud liquid medium. 4 ml of the 500 μg/ml concentration was then made up to 20 ml with Sabouraud liquid medium to give a concentration of 100 μg/ml. Serial two-fold dilutions were prepared from this in the same medium down to 0.1 μg/ml.
(§9) For the fungi the same procedure was followed using the concentrations made up in Sabouraud liquid medium. The Nystatin concentrations were also dispensed in 2 ml amounts for each organism. Growth controls of Sabouraud liquid medium were included in each series.
as §3, §4

[4] = test system: Tr. RUBRUM; assay: as above; assay type: cell-based; conditions: 37° C., 5 to 15 days; for MIC: Trichophyton rubrum
Description: as §8, §9, §3, §4

[5] = test system: C. ALBICANS; assay: as above; assay type: cell-based; conditions: 37° C., 5 to 15 days; for MIC: Candida albicans
Description: as §8, §9, §3, §4

[6] = test system: Sp. SCHENKII; assay: as above; assay type: cell-based; conditions: 37° C., 5 to 15 days
Description: as §8, §9, §3, §4

[7] = test system: Tr. MENTAGROPHYTES; assay: as above; assay type: cell-based; conditions: 37° C., 5 to 15 days; for MIC: Trichophyton mentagrophytes
Description: as §8, §9, §3, §4

[8] = test system: St. PYOGENES; assay: Minimum Inhibitory Concentration (MIC), broth dilution in Brain Heart Infusion broth; assay type: cell-based; conditions: 37° C., 48 hours; for MIC: Streptococcus pyogenes
Description: as §1, §2, §3, §4

[9] = test system: bacteria; conditions: literature (W. Riedl); cited from earlier work
[10] = test system: CD-1 mice; assay: Acute oral toxicity in CD-1 mice; assay type: in vivo; conditions: male and female CD-1 mice, dose levels 1000, 464, 215 and 100 mg/kg, 7 days observation
Description: as §5, §6, §7

Compound | MIC [1] [µg/mL] | LD50 at 168 h [2] [mg/kg] | MIC [3] [µg/mL] | MIC [4] [µg/mL] | MIC [5] [µg/mL] | MIC [6] [µg/mL] | MIC [7] [µg/mL] | MIC [8] [µg/mL] | antibiotic / antibacterial activity (in words) [9] | also measured
CCCC(=O)c1c(O)c2c(c(C(=O)CCC)c1O)OC(C)(C)CC2 [Compound 36, 5,7-Dihydroxy-6,8-dibutyryl-2,2-dimethylchroman] | 250 (≈ 748 µM) | > 1000 | 100 (≈ 299 µM) | 100 (≈ 299 µM) | 100 (≈ 299 µM) | 100 (≈ 299 µM) | 100 (≈ 299 µM) | 64 (≈ 191 µM) |  | 
CCCC(=O)c1c(O)c2c(c(C(=O)CCC)c1O)OC(C)C2 (centres unmarked) [Compound 37, 4,6-dihydroxy-5,7-dibutyryl-2-methyl-2,3-dihydrobenzofuran] | 125 (≈ 408 µM) | > 215 | > 100 | 100 (≈ 326 µM) | > 100 | > 100 | > 100 | 32 (≈ 104 µM) |  | 
CC(C)=CCC1=C(O)C(O)(CC=C(C)C)C(=O)C(C(=O)CC(C)C)=C1O (centres unmarked) [humulon] |  |  |  |  |  |  |  |  | certain antibiotic properties | 
CC(C)=CCC1=C(O)C(C(=O)CC(C)C)=C(O)C(CC=C(C)C)(CC=C(C)C)C1=O [lupulone] |  |  |  |  |  |  |  |  | certain antibiotic properties | 
either 7-butyryl-4,6-dihydroxy-2-methyl-2,3-dihydrobenzofuran or 5-butyryl-4,6-dihydroxy-2-methyl-2,3-dihydrobenzofuran [Compound 35] |  |  |  |  |  |  |  |  |  | MIC S. AUREUS [1]: 125 µg/mL; LD50 [10]: > 1000; MIC Mic. CANIS [3]: 12,5 μg/ml; MIC Tr. RUBRUM [4]: 25 µg/mL; MIC C. ALBICANS [5]: 25 µg/mL; MIC Sp. SCHENKII [6]: 50 µg/mL; MIC Tr. MENTAGROPHYTES [7]: 25 µg/mL; MIC St. PYOGENES [8]: 32 µg/mL
